Assays:
[1] = test system: Cdc2 (Cdk1) tyrosine 15 phosphorylation in NCI-H1299 cells; assay: Cdc2 (Cdk1) tyrosine 15-phosphorylation-inhibitory effect in NCI-H1299 cells, camptothecin-treated (ELISA); assay type: cell-based; settings: Homo sapiens, 200 nM camptothecin 16 hours, then test compound with nocodazole 8 hours, read-out: Cdc2-Y15 Phosphorylation-Inhibitory Effect (H1299, +camptothecin) (EC50)
Description: Pharmacological Test 2 (Method of Determining Drug Potency with Cells (Cdc2 (Cdk1) Tyrosine 15-Phosphorylation-Inhibitory Effect))
Fetal bovine serum (FBS) was gotten from Morgate; media RPMI1640 and DMEM were from Invitrogen; camptothecin was from Sigma; gemcitabine was from Nippon Eli Lilly; nocodazole and protease inhibitor cocktail were from Sigma; rabbit anti-Cdc2 antibody and mouse anti-Cdc2 antibody were from Santa Cruz Biotechnology; rabbit anti-tyrosine 15-phosphorylated Cdc2 antibody and horseradish peroxidase-labeled anti-mouse IgG antibody were from Cell Signaling Technology; sure blue reserve TMB peroxidase substrate was from Kirkegaard and Perry Laboratories.
Human non-small cell lung cancer cells (NCI-H1299) and human colon cancer cells (WiDr) were gotten from American Type Culture Collection (ATCC).
In the method of using NCI-H1299 cells, the cells were suspended in a medium of 10% FBS-added RPMI1640, and the cell suspension was applied to a 96-well Nunclondelta-processed plastic plate (bought from Nunc), in an amount of 2000 cells/100 μL/well, in which the cells were incubated overnight in 5% CO2-95% air at 37° C. Camptothecin was dissolved in dimethyl sulfoxide (DMSO), and diluted with a medium of 10% FBS-added RPMI1640, and then this was applied to the plate on which the cells had been previously sowed, in an amount of 50 μL/well in such a manner that the final concentration of camptothecin could be 200 nM. Then, the cells were incubated for 16 hours at 37° C. in 5% CO2-95% air. A test compound was stepwise diluted with DMSO, then diluted with 4000 nM nocodazole-containing, 10% FBS-added RPMI1640, and applied to the plate on which the camptothecin-treated cells had been sowed, in an amount of 50 μL/well. […] Cdc2 was determined through ELISA as follows: A rabbit anti-Cdc2 antibody solution, which had been diluted 200-fold with 50 mM carbonate-bicarbonate buffer (pH 9.6), was applied to a 96-well maxisorpimmuno plate (bought from Nunc), in an amount of 50 μL/well, and statically kept overnight at 4° C. so as to fix the antibody on the plate. […]

Wee1 kinase = biological target: T1, Wee1 kinase (Homo sapiens, UniProt P30291); assay: Wee1 kinase-inhibitory effect (33P-ATP filter assay with GST-tagged Wee1); assay type: biochemical; settings: purified GST-Wee1, Poly(Lys,Tyr) substrate, 10 μM ATP, 30° C. for 30 minutes; read-out: Weel-Inhibitory Effect (IC50)
T1 construct: made in house; host or cells: Sf9 insect cells (recombinant baculovirus)
Description: Pharmacological Test 1 (Wee1 Kinase-Inhibitory Effect)
(1) Purification of Wee1 Kinase:
A cDNA of Wee1 kinase with glutathion-S-transferase (GST) fused at the amino terminal thereof was inserted into a baculovirus expression vector to construct a recombinant baculovirus, with which cells of an insect cell line Sf9 were infected for high expression therein. The infected cells were collected and solubilized, and then the GST-tagged Wee1 kinase protein was adsorbed by a glutathion column, and eluted from the column with glutathion, and the active fraction was desalted in a desalting column to give a purified enzyme.
(2) Determination of Wee1 Kinase Activity:
In determination of the Wee1 kinase activity, a synthetic peptide, Poly(Lys,Tyr) Hydrobromide (Lys:Tyr (4:1)) bought from Sigma was used as the substrate.
The amount of the reaction liquid was 21.1 μL; and the composition of the reaction buffer was 50 mM Tris-HCl buffer (pH 7.4)/10 mM magnesium chloride/1 mM dithiothreitol. The purified Wee1 kinase, 2.5 μg of the substrate peptide, 10 μM of non-labeled adenosine triphosphate (ATP) and 1 μCi of [γ-^33P]-labeled ATP (2500 Ci/mmol or more) were added to it, and reacted at 30° C. for 30 minutes. Next, 10 μL of 350 mM phosphate buffer was added to the reaction system to stop the reaction. The substrate peptide was adsorbed by a P81 paper filter 96-well plate, then washed a few times with 130 mM phosphate buffer, and its radioactivity was counted with a liquid scintillation counter. The [γ-^33P]-labeled ATP was bought from Amersham Bioscience.
To add a test compound to the reaction system, the compound was diluted with dimethyl sulfoxide (DMSO) to prepare a series of dilutions. 1.1 μL of each dilution was added to the reaction system. As a control, 1.1 μL of DMSO was added to the reaction system.

T1 sequence (P30291 whole entry): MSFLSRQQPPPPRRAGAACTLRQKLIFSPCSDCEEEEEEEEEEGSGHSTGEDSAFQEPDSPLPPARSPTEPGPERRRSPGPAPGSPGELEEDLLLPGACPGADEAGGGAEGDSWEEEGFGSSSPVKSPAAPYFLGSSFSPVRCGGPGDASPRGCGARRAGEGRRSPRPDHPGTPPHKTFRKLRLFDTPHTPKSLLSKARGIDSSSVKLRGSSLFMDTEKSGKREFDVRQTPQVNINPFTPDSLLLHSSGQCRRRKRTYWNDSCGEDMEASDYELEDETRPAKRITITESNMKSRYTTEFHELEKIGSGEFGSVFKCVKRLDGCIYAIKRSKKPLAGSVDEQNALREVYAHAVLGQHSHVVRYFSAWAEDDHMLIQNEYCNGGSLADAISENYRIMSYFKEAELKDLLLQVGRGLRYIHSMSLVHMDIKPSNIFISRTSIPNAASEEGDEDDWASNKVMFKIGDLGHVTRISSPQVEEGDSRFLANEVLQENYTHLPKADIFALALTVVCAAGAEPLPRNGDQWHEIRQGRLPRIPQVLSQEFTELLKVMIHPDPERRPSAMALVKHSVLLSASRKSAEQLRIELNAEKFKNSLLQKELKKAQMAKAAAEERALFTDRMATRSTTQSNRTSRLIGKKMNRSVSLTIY

| EC50 [1] [µM] | IC50 (Wee1 kinase) [µM] | SMILES |
| --- | --- | --- |
| 0.19 | 0.016 | C=CCn1c(=O)c2cnc(Nc3ccc(N4CCN(C)CC4)cc3)nc2n1-c1cccc(-n2ccccc2=O)n1 [Example 1, 6′-(2-allyl-6-{[4-(4-methylpiperazin-1-yl)phenyl]amino}-3-oxo-2,3-dihydro-1H-pyrazolo[3,4-d]pyrimidin-1-yl)-2H-1,2′-bipyridin-2-one] |
| 0.26 | 0.018 | C=CCn1c(=O)c2cnc(Nc3ccc(N4CCN(C)CC4)cc3)nc2n1-c1cccc(-n2cc(F)ccc2=O)n1 [Example 5, 6′-(2-allyl-6-{[4-(4-methylpiperazin-1-yl)phenyl]amino}-3-oxo-2,3-dihydro-1H-pyrazolo[3,4-d]pyrimidin-1-yl)-5-fluoro-2H-1,2′-bipyridin-2-one] |
| 0.18 | 0.0179 | C=CCn1c(=O)c2cnc(Nc3ccc4c(c3)CN(C)CC4)nc2n1-c1cccc(-n2ccccc2=O)n1 [Example 30, 6′-{2-Allyl-6-[(2-methyl-1,2,3,4-tetrahydroisoquinolin-7-yl)amino]-3-oxo-2,3-dihydro-1H-pyrazolo[3,4-d]pyrimidin-1-yl}-2H-1,2′-bipyridin-2-one] |
